The data set can be described thus: Human HepG2 cell viability assay in 384 well format. The data set is classed as toxicity, cell-based. On the set-up: dose 125 nL, time 70.5 hour; cytotoxicity at 70.5 h: concentration not given beside the values. The conditions noted are these: HepG2 cells, read-out: Inhibition.

As for `Fc1cnc(N2CCCC3(CCN(Cc4nccs4)C3)C2)nc1` (stereo not drawn), the cytotoxicity at 70.5 h came to 15%.

As to `c1ccc(NCc2cnc3n2CCN(C2CCOC2)CC3)nc1` (stereo not drawn), the cytotoxicity at 70.5 h amounted to 15.7%.

On to `CS(=O)(=O)N[C@@H]1CN(C(=O)c2ccccn2)C[C@@H]2CCCO[C@@H]21`, for which the cytotoxicity at 70.5 h is -9.33%.

For the compound `c1nc2n(c1CN1CCCC1)CCN(C1CCOCC1)CC2`, the cytotoxicity at 70.5 h is -7.69%.

`c1ccc(COCC2CN(Cc3ccsc3)Cc3nccn3C2)nc1` (stereo not drawn): the cytotoxicity at 70.5 h is -7.86%.

For the compound `CS(=O)(=O)NCc1ncn2c1CN(C(=O)C1CCCCC1)CCC2`, the cytotoxicity at 70.5 h is -4.09%.

As to `CS(=O)(=O)NCc1ncn2c1CN(CCN1CCCC1)CCC2`, the cytotoxicity at 70.5 h was -6.23%.

Take `Cc1ccc(NC(=O)N2CC(C(=O)NC(C)C)C3(CCOCC3)C2)cc1` (stereo not drawn): the cytotoxicity at 70.5 h was -6.28%.

With `Cc1ccc(C(=O)N2C[C@@H]3OCCN(C(C)C)[C@@H]3C2)cn1`, the cytotoxicity at 70.5 h is -11.3%.

In the case of `CC(C)NC(=O)C1CN(C(=O)COc2ccccc2)CC12CCOCC2` (stereo not drawn), the cytotoxicity at 70.5 h is -9.68%.

In the case of `CN(C)C(=O)n1c(C(=O)NC(C)(C)CO)cc2c1c1ccccc1n2C`, the cytotoxicity at 70.5 h is -6.99%.

`CC(C)NC(=O)C1CN(C(=O)Nc2ccc(F)cc2)CC12CCOCC2` (stereo not drawn): the cytotoxicity at 70.5 h was -6.35%.

Regarding `CC(C)NC(=O)C1CN(C(=O)Nc2cccc(F)c2)CC12CCOCC2` (stereo not drawn), the cytotoxicity at 70.5 h was -6.98%.

Consider `O=C(c1ccnnc1)N1CCC2(CC1)CN(c1ccccn1)CCO2`, for which the cytotoxicity at 70.5 h is -10.9%.

With `CC(C)N1CCO[C@H]2CN(C(=O)c3ccncc3)C[C@H]21`, the cytotoxicity at 70.5 h was determined as 11.9%.

For `CCC1=N[C@@]2(CC[C@@H]3CN(C(=O)NCc4cccc(F)c4)C[C@@H]32)C(=O)N1`, the cytotoxicity at 70.5 h was -5.99%.

For `O=C(N1CCOCC1)N1CCC2(CC1)CN(c1ccccn1)CCO2`, the cytotoxicity at 70.5 h was -6.33%.

`COCCN1CCOCC12CCN(C(=O)c1c[nH]c3ccccc13)CC2`: the cytotoxicity at 70.5 h is -13.9%.

On to `CC(=O)N1CCC2(CCN(C(=O)c3cccc(C(F)(F)F)c3)CC2)C1`, for which the cytotoxicity at 70.5 h stood at 7.98%.

Take `O=C(NC1CCC1)C1=NOC2(CCN(Cc3ccco3)C2)C1` (stereo not drawn): the cytotoxicity at 70.5 h came out at 6.54%.

Consider `C=C(C)COc1cccc(CNC(COC)c2ccnn2C)c1` (stereo not drawn), for which the cytotoxicity at 70.5 h turned out to be 2.53%.

Turning to `O=C1CCC2(CCN(CC[C@H](O)c3ccccc3)CC2)CN1CCO`, the cytotoxicity at 70.5 h turned out to be 1.6%.

For `COc1ccc2c(c1)OCC(Cc1cnccc1N)C2` (stereo not drawn), the cytotoxicity at 70.5 h was -3.68%.

Regarding `Cc1cc(C2CCCN2C(=O)CN2C(=O)OC(C)(C)C2=O)on1` (stereo not drawn), the cytotoxicity at 70.5 h is -2.6%.

For the compound `CCCS(=O)(=O)N1CCC2(CCCN(Cc3cccc(F)c3F)C2=O)C1` (stereo not drawn), the cytotoxicity at 70.5 h was -7.34%.

Turning to `COCc1cn(C2CCN(CCC(C)c3ccccc3)CC2)nn1` (stereo not drawn), the cytotoxicity at 70.5 h is -12.1%.

As for `Cc1cc(C)n(CC(C)NC(=O)c2cc(C(C)C)on2)n1` (stereo not drawn), the cytotoxicity at 70.5 h was -4.49%.

`Cc1cc2nc(C(C)C)cc(NCCc3ccncc3)n2n1`: the cytotoxicity at 70.5 h was -13.2%.

For the compound `CCNC(=O)[C@@H]1C[C@@H](NC(=O)c2ccsc2)CN1CCCSC`, the cytotoxicity at 70.5 h is -3.62%.

Turning to `O=C(O)c1cccc(CC2CCN(c3cnccn3)CC2)c1`, the cytotoxicity at 70.5 h was -2.92%.

In the case of `CC(c1ccon1)N(C)C(=O)C1CCN(C(=O)C2CC2)CC1` (stereo not drawn), the cytotoxicity at 70.5 h is -4.84%.

For the compound `c1cncc(CN2CCc3ncnc(NCCc4c[nH]cn4)c3CC2)c1`, the cytotoxicity at 70.5 h was -1.46%.

As for `CCN1CC2(CCC1=O)CCN(Cc1cc(F)ccc1Cl)CC2`, the cytotoxicity at 70.5 h was -0.396%.

On to `CC(C)(N)c1cn(C2CCN(c3ncccc3Cl)CC2)nn1`, for which the cytotoxicity at 70.5 h was -9.17%.

Regarding `CCc1cnc(NCCS(=O)(=O)CC(C)C)nc1`, the cytotoxicity at 70.5 h is 19.7%.

With `Cc1ccc(N2CCN(C(=O)[C@@H]3CCC(=O)N3)CC2=O)cc1`, the cytotoxicity at 70.5 h is -7.74%.

In the case of `O=C(C1CCC1)N1CCN(Cc2ccc(F)cc2)[C@H]2CS(=O)(=O)C[C@H]21`, the cytotoxicity at 70.5 h is -3.17%.

Take `c1ccc(CCc2n[nH]c(CCN3CCCCC3)n2)cc1`: the cytotoxicity at 70.5 h is -13.4%.

On to `O=C(NCCc1c[nH]cn1)c1ccc(S(=O)(=O)NC2CCCC2)cc1`, for which the cytotoxicity at 70.5 h is -1.62%.

Consider `Cc1cc(C)cc(N2CCN(C(=O)CCN3C[C@@H]4CC[C@H]3C4)CC2=O)c1`, for which the cytotoxicity at 70.5 h was -11.2%.

For `CCC(C)N(Cc1ccncc1)Cc1ccccc1Cn1cccn1` (stereo not drawn), the cytotoxicity at 70.5 h is -11.3%.

Turning to `CN(Cc1nc(Cc2cccc(F)c2)no1)C1CCOCC1`, the cytotoxicity at 70.5 h was -13.9%.

Turning to `CCO[C@H]1COC[C@@H]1NC(=O)CCc1nc(-c2ccccc2)no1`, the cytotoxicity at 70.5 h is -8.01%.

Turning to `CS(=O)(=O)N1CCC(c2nccn2Cc2ccccn2)CC1`, the cytotoxicity at 70.5 h is -5.19%.

Turning to `C=C1C(C)(C)[C@H]2CC[C@]1(C(=O)N1CCC(Cn3cc(CO)nn3)CC1)C2`, the cytotoxicity at 70.5 h turned out to be 26.1%.

`O=C(CN1CCOc2ccccc2C1)N1Cc2cnn(CCO)c2C1`: the cytotoxicity at 70.5 h is -0.755%.

Regarding `CC(O)C(=O)N1CCC(c2[nH]ncc2-c2ccccc2)CC1` (stereo not drawn), the cytotoxicity at 70.5 h worked out at 20.2%.

Take `CCN(CC)CCN(C)Cc1cn(C)nc1-c1ccc2c(c1)OCCO2`: the cytotoxicity at 70.5 h amounted to 23.5%.

`Cc1n[nH]c(C)c1CCN(C)c1ccc(-c2nc(C3CC3)no2)cn1`: the cytotoxicity at 70.5 h stood at 4.49%.

In the case of `Cc1cc(N2CCC(c3ncc[nH]3)CC2)cc(C)n1`, the cytotoxicity at 70.5 h is -3.01%.

`CC(C)S(=O)(=O)N1CCCC(c2nccn2Cc2cccnc2)C1` (stereo not drawn): the cytotoxicity at 70.5 h was -8.01%.

As to `Cn1ccnc1CNc1nccc(-c2ncnn2C)n1`, the cytotoxicity at 70.5 h is -14.8%.

For `Cc1ccc(C(C(=O)NCCc2nc(C)cc(=O)[nH]2)N(C)C)cc1` (stereo not drawn), the cytotoxicity at 70.5 h stood at 7.05%.

Regarding `COc1ccc(CN2CCC3(CCCN(c4ncc(F)cn4)C3)C2)cc1` (stereo not drawn), the cytotoxicity at 70.5 h was 50.3%.

For `COc1cc(N2C[C@H]3CCC[C@@H](CN(C)C4CC4)[C@H]3C2)ncn1`, the cytotoxicity at 70.5 h is -1.7%.

For the compound `COCCNC(=O)[C@@]12CCO[C@@H]1CCN(Cc1ccc(OC)cc1)C2`, the cytotoxicity at 70.5 h is -5.1%.

As to `Cc1ccc(C(=O)N2CCC3(CC2)CN(c2ccccn2)CCO3)cc1`, the cytotoxicity at 70.5 h is -8.31%.

As for `COCCN1CCOCC12CCN(C(=O)c1ccoc1)CC2`, the cytotoxicity at 70.5 h is -4.83%.

`Cc1occc1C(=O)N1C[C@@H]2OCCN(C(C)C)[C@@H]2C1`: the cytotoxicity at 70.5 h came out at 5.55%.

For the compound `Cc1oncc1C(=O)N1CCOCC2(CCN(c3ccccn3)C2)C1` (stereo not drawn), the cytotoxicity at 70.5 h was -3.11%.

Regarding `Fc1cnc(N2CCCC3(CCN(Cc4ccco4)C3)C2)nc1` (stereo not drawn), the cytotoxicity at 70.5 h worked out at 10.4%.

As for `Fc1ccc(CN2Cc3nccn3CC(CN3CCOCC3)C2)cc1` (stereo not drawn), the cytotoxicity at 70.5 h is -8.01%.

With `Cc1ccc(CN2Cc3nccn3CC(CN(C)C)C2)s1` (stereo not drawn), the cytotoxicity at 70.5 h is -7.65%.

Turning to `Cc1ccc2c(n1)N(Cc1cccnc1)CCN(C(=O)C1CC1)C2`, the cytotoxicity at 70.5 h turned out to be 11.2%.

Take `CN(C)CC1CN(Cc2ccc(F)cc2)Cc2nccn2C1` (stereo not drawn): the cytotoxicity at 70.5 h was -4.49%.

Take `CC(C)N1CCO[C@H]2CN(C(=O)c3ccccn3)C[C@H]21`: the cytotoxicity at 70.5 h was -7.58%.

Regarding `COCCN(C)C1COC2(CCN(Cc3cccc(F)c3)CC2)C1` (stereo not drawn), the cytotoxicity at 70.5 h stood at 10.1%.

Take `CN(Cc1ccncc1)C1COC2(CCN(Cc3ccco3)CC2)C1` (stereo not drawn): the cytotoxicity at 70.5 h is 9.94%.

These data come from ChEMBL document CHEMBL3507680, “University of Dundee, Gates Library screen for HepG2 cell viability”.
